In patent US7241611B2, “Methods for synthesis of holo-photoactive yellow protein” (Universiteit Gent, priority 2002, dated 2007):
Where two headings read alike, the source gives them in different places.

How the values were obtained:
[1] = biological target: T1, PAL/TAL enzyme from the monocot Zea mays (Zea mays, UniProt Q8VXG7); conditions: pH 8.7; cited from earlier work
[2] = system: tyrosine ammonia lyase (TAL) from Rhodobacter capsulatus; assay type: biochemical; conditions: for pH optimum of activity (TAL with L-tyrosine, PAL with L-phenylalanine): pH 6
Description: Both activities were followed by the following spectrophotometric assay (adapted from Rösler et al. (1997)): PAL activity was assayed by following cinnamic acid formation at 280 nm using a double beam spectrophotometer (Uvikon, Kontron, Herts, United Kingdom) in 10 mM Tris buffer at 35° C. The pH optimum was determined between the pH values 6-10. The substrate concentrations were varied between 5 mM and 0.2 mM. TAL activity was assayed by monitoring p-hydroxycinnamic acid formation at 310 nm and 35° C. The substrate concentration was varied between 2 mM and 0.01 mM. All reactions were performed in a total volume of 1 ml.
FIG. 3 presents Lineweaver-Burk plots for the two substrates at their respective pH optimum.
Since PAL and TAL sequences show significant homology to histidine ammonia lyases (HAL), which are common enzymes in bacteria, we also tested L-histidine as a substrate for the recombinant enzyme.

[3] = biological target: PAL-1 isozyme from parsley (Petroselinum crispum) (Petroselinum crispum, UniProt P24481); conditions: cited from earlier work
[4] = biological target: T1, PAL/TAL enzyme from the monocot Zea mays; assay: Kinetic parameters of the PAL/TAL enzyme from maize (Rösler et al., 1997); assay type: biochemical; conditions: pH 8.7
[5] = Laser flash photolysis, photocycle kinetics of PYP; set-up: species or system Halorhodospira halophila; conditions: flash 440 nm, universal buffer pH 8.0
Description: The laser flash photolysis and spectroscopy apparatus and the methods used for data analysis were as previously described (Meyer et al., 1987). The PYP sample was dialysed against a universal buffer (20 mM MES, 20 mM HEPES, and 20 mM glycine, pH 8.0) prior to the experiment. We used 1 ml samples, with an absorbance at 445 nm of approximately 0.2, for the kinetic measurements. By flashing the PYP sample with laser light of 440 nm, we could determine the kinetics of the light-induced absorbance changes. FIGS. 9a and 9b show the I1→I2 bleach reaction and the I2→P recovery of our in vivo formed holo-PYP. It can be seen that after a flash with 440 nm light, the PYP went through a normal photocycle. […] The rate of recovery was 7.2 s^−1, compared to 6.3 s^−1 for wild-type and chemically reconstituted PYP (Meyer et al., 1987; Genick et al., 1997). […] Since this is different from the 3.4 ms^−1 reported by Genick et al. (1997), we repeated the experiment under our conditions with native PYP and found the rate to be 1.3 ms^−1. This is approximately the same as what we measured with our recombinant PYP.

[6] = reported by Genick et al. (1997); cited from earlier work

T1 sequence (Q8VXG7 whole entry): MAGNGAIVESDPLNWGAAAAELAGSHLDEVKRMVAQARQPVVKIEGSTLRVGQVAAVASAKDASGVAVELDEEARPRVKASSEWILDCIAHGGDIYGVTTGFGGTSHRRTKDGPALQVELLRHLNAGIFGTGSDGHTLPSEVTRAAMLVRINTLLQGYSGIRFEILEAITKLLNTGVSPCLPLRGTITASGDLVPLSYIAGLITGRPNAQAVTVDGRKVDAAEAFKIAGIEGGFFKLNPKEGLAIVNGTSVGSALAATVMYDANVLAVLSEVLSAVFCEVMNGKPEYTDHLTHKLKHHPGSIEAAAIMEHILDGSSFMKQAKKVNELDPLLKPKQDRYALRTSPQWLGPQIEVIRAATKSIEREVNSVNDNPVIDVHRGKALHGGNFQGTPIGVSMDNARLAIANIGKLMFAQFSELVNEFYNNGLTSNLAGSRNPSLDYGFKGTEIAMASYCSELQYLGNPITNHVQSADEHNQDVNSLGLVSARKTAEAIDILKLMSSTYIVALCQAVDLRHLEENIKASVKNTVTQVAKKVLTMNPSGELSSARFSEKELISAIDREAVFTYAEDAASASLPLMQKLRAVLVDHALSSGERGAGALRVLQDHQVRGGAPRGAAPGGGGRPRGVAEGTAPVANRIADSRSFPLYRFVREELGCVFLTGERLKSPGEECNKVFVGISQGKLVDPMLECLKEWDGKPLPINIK

For `N[C@@H](Cc1ccccc1)C(=O)O` [L-Phenylalanine, L-phenylalanine], the Km [1] is given as 270 µM, the kcat [1] is given as 10 s⁻¹ and the “fold higher Km for L-Phe than for L-Tyr” value [2] is given as 80 fold. For the same molecule, the “pH optimum of activity (TAL with L-tyrosine, PAL with L-phenylalanine)” value [2] was 9.4, the Km [3] was 17.2 µM and the kcat [3] was 22 s⁻¹. The “fold higher Km value for L-Phe compared to L-Tyr” value [4] was 15 fold.

In the case of `N[C@@H](Cc1ccc(O)cc1)C(=O)O` [L-Tyrosine, L-tyrosine], the Km [1] is given as 19 µM, the kcat [1] is given as 0.9 s⁻¹ and the “pH optimum of activity (TAL with L-tyrosine, PAL with L-phenylalanine)” value [2] is given as 8.5. For the same molecule, the kcat [3] was 0.3 s⁻¹.

In the case of `N[C@@H](Cc1c[nH]cn1)C(=O)O` [L-histidine], the “activity as substrate (histidine ammonia lyase activity)” value ([2]; spectrophotometric assay of Schwede et al. (1999)) is reported as “could not detect any activity”.

In the case of `N[C@@H](Cc1c[nH]c2ccccc12)C(=O)O` [L-tryptophan], the activity as substrate ([2]; up to a 5 mM concentration) is reported as “no activity was detected”.

B1: recombinant PYP: holo-photoactive yellow protein formed in vivo in Escherichia coli with TAL, pCL and pyp genes (protein, UniProt P16113 1-125, looked up)
Photoactive yellow protein: MEHVAFGSEDIENTLAKMDDGQLDGLAFGAIQLDGDGNILQYNAAEGDITGRDPKQVIGKNFFKDVAPCTDSPEFYGKFKEGVASGNLNTMFEYTFDYQMTPTKVKVHMKKALSGDSYWVFVKRV
modifications: recombinant holo form, expressed in E. coli
For B1, the “rate constant of the bleach (I1→I2)” value [5] was 1.6 ms^−1.

B2: chemically reconstituted PYP: recombinant apo-PYP with the chromophore chemically attached (Genick et al., 1997) (protein, UniProt P16113 1-125, looked up)
Photoactive yellow protein: MEHVAFGSEDIENTLAKMDDGQLDGLAFGAIQLDGDGNILQYNAAEGDITGRDPKQVIGKNFFKDVAPCTDSPEFYGKFKEGVASGNLNTMFEYTFDYQMTPTKVKVHMKKALSGDSYWVFVKRV
modifications: chemically attached chromophore
In the case of B2, the “rate constant of the bleach (I1→I2)” value [6] is given as 3.4 ms^−1.

B3: wild-type PYP: wild-type Halorhodospira halophila photoactive yellow protein (protein, UniProt P16113 1-125, looked up)
Photoactive yellow protein: MEHVAFGSEDIENTLAKMDDGQLDGLAFGAIQLDGDGNILQYNAAEGDITGRDPKQVIGKNFFKDVAPCTDSPEFYGKFKEGVASGNLNTMFEYTFDYQMTPTKVKVHMKKALSGDSYWVFVKRV
modifications: holo form with chromophore
For B3, the “rate constant of the bleach (I1→I2)” value [5] was 1.3 ms^−1.
